Measurements taken from patent publication US20230109717A1 (GAIA BioMedicine Inc., priority 2020, published 2023).

Legend:
highly active NK cells [1] = assay: Viability of freeze-thawed highly active NK cells (7-AAD staining, flow cytometry, FlowJo); conditions: collect. method 2
Experimental: The highly activated NK cells (1×10^5 cells/well) thawed under each condition were centrifuged on a 96-well plate (IWAKI, 4870-800SP), the supernatant was removed, and then a 7-amino-actinomycin D (7-AAD) solution diluted with PBS (Beckman Coulter, A 07704) was added to the cells to suspend them, and the suspension was incubated at room temperature (room temperature means 15 to 25° C., the same shall apply in the following experiments) for 20 minutes. The stained cells were measured by using a flow cytometer (BD LSR Fortessa, BD Biosciences).
The NK cells frozen for 48 hours or longer were thawed in a water bath at 37° C., and 1×10^5 cells were dispensed on a 96-well plate (IWAKI) immediately after the thawing. […] The cells dispensed immediately after thawing were centrifuged immediately after they were dispensed, and the cells of the other four groups were centrifuged after incubation of 3 hours, measurement was performed by the method for staining with 7-AAD described above, and the results were analyzed with the FlowJo software (FLOWJO, LLC) to calculate viable cell rates.
The NK cells frozen for 48 hours or longer were thawed at 37° C. in a water bath, and then 1×10^5 of the cells were dispensed on a 96-well plate immediately after the thawing. […] The cells dispensed immediately after thawing were centrifuged immediately after they were dispensed, and the cells of the other four groups were centrifuged after incubation of 3 hours, measurement was performed by the method for staining with 7-AAD described above, and the results were analyzed with the FlowJo software (FLOWJO, LLC) to calculate viable cell rates.
Then, measurement was performed by the method for staining with 7-AAD described above, and the results were analyzed with the FlowJo software. […] Then, measurement was performed by the method for staining with 7-AAD described above, and the results were analyzed with the FlowJo software. (8-3) The experiment was performed in the same manner as in (8-1), but (1) PBS, (2) Plasma-Lyte A, (3) Plasma-Lyte A containing 27.7 mEq/L of lactic acid (Nacalai Tesque, 20006-62), (4) Plasma-Lyte A containing 48.84 mg/L of MgSO4.7H2O (Nacalai Tesque, 21002-85), (5) Lactoringer, (6) Veen-F (Fuso Pharma), (7) Solita-T1 (AY Pharmaceuticals), (8) Solita-T3 (AY Pharmaceuticals), (9) 5% glucose injection solution (Terumo), and (10) RPMI medium were used as the solvents for dilution of thawed cells, and the cells were incubated at 37° C. for 3 hours. In the case of (3), lactic acid was added at the same concentration as the lactate concentration in Lactoringer, and neutrality of the solution was confirmed with litmus test paper. In the case of (4), MgSO4 was added at the same concentration as the MgSO4 concentration in HBSS. Measurement was then performed by the method for staining with 7-AAD described above, and the results were analyzed with the FlowJo software. (8-4) The experiment was performed in the same manner as in (8-2), but the cells were treated by using (1) PBS, (2) Plasma-Lyte A, (3) saline (OTSUKA NORMAL SALINE, Otsuka Pharmaceutical), (4) Bicanate (Otsuka Pharmaceutical), and (5) Solacet F (Terumo) as the solvents for dilution of thawed cells. Measurement was then performed by the method for staining with 7-AAD described above, and the results were analyzed with the FlowJo software. […] Immediately after completely thawed, the cells were diluted 10-fold in (1) Plasma-Lyte A, (2) saline, (3) RPMI 1640 medium, (4) Lactoringer, (5) 0.423 mM CaCl2 prepared in Plasma-Lyte A, and (6) 1.36 mM CaCl2, and left to stand at 37° C. for 3 hours. The CaCl2 concentration of (5) was the same as that in the RPMI 1640 medium, and the CaCl2 concentration of (6) was the same as that in Lactoringer. Measurement was then performed by the method for staining with 7-AAD described above, and the results were analyzed with the FlowJo software.

highly active NK cells [2] = assay: Viable cell count and recovery rate of highly active NK cells after thawing, based on cell number at freezing; set-up: species or system human
Experimental: After the thawing, all the dilution and incubation operations were performed on a low-absorption 6-well plate.
The cells of the groups diluted in the media were incubated overnight at 37° C. under 5% CO2, and then the numbers of viable cells were counted. The experimental conditions are summarized below.
The NK cells obtained by the collection method 1 were suspended in PBS, and incubated at room temperature for 1 hour. The NK cells obtained by the collection method 2 were suspended in (1) the KBM501 medium, (2) KBM501 medium containing 30 μM 4-phenylbutyric acid, (3) KBM501 medium containing 30 μM tauroursodeoxycholic acid dihydrate (TUDCA, Tokyo Kasei Kogyo, T1567), and (4) KBM501 medium containing 30 μM 4-phenylbutyric acid and 30 μM TUDCA, and incubated at 37° C. for 2 hours under 5% CO2. […] After 1 hour, the cells were gently suspended, and number of viable cells was counted. After another 5-fold dilution in the KBM501 medium and incubation at 37° C. for 2 hours under 5% CO2, number of viable cells was counted, and the recovery rate based on the number of cells at the time of freezing was calculated.
After 1 and 3 hours, the cells were gently suspended, and viable cells were counted. In addition, after 1 hour, the cells were diluted 5-fold in the KBM501 medium, and incubated at 37° C. for 2 hours under 5% CO2, and viable cell were counted. Recovery rate of viable cells after the thawing based on the cell number at the time of freezing was calculated using the number of viable cells at each time point.
After 1 and 3 hours, the cells were gently suspended, and viable cells were counted. In addition, after 1 hour, the cells were diluted 5-fold in the KBM501 medium, and incubated at 37° C. for 2 hours under 5% CO2, and viable cell were counted. Recovery rate of viable cells after the thawing based on the cell number at the time of freezing was calculated on the basis of the number of viable cells at each time point after the thawing.

`C[C@H](CCC(=O)NCCS(=O)(=O)O)[C@H]1CC[C@H]2[C@@H]3[C@@H](O)C[C@@H]4C[C@H](O)CC[C@]4(C)[C@H]3CC[C@]12C` [TUDCA, tauroursodeoxycholic acid dihydrate] was tested, and the Viability (highly active NK cells [1]; Exmp. 6, pretreatment KBM + 10 μM TUDCA 2 h, thawing PlasmaLyte R.T. 1 h, then KBM 2 h) was “A (“A” means 70% or higher)”, the Viability (highly active NK cells [1]; Exmp. 6, pretreatment KBM + 10 μM TUDCA 2 h, thawing PlasmaLyte R.T. 3 h) was “A (“A” means 70% or higher)” and the Viability (highly active NK cells [1]; Exmp. 6, pretreatment KBM + 30 μM TUDCA 2 h, thawing PlasmaLyte R.T. 1 h, then KBM 2 h) was “A (“A” means 70% or higher)”. The Viability (highly active NK cells [1]; Exmp. 6, pretreatment KBM + 30 μM TUDCA 2 h, thawing PlasmaLyte R.T. 3 h) was “A (“A” means 70% or higher)”, the Viability (highly active NK cells [1]; Exmp. 6, pretreatment KBM + 90 μM TUDCA 2 h, thawing PlasmaLyte R.T. 1 h, then KBM 2 h) was “A (“A” means 70% or higher)” and the Viability (highly active NK cells [1]; Exmp. 6, pretreatment KBM + 90 μM TUDCA 2 h, thawing PlasmaLyte R.T. 3 h) was “A (“A” means 70% or higher)”. For the same molecule, the Viability (highly active NK cells [1]; Exmp. 6, pretreatment KBM + 270 μM TUDCA 2 h, thawing PlasmaLyte R.T. 1 h, then KBM 2 h) was “A (“A” means 70% or higher)”, the Viability (highly active NK cells [1]; Exmp. 6, pretreatment KBM + 270 μM TUDCA 2 h, thawing PlasmaLyte R.T. 3 h) was “A (“A” means 70% or higher)” and the Viability (highly active NK cells [1]; Exmp. 6, pretreatment KBM + 810 μM TUDCA 2 h, thawing PlasmaLyte R.T. 1 h, then KBM 2 h) was “A (“A” means 70% or higher)”. The Viability (highly active NK cells [1]; Exmp. 6, pretreatment KBM + 810 μM TUDCA 2 h, thawing PlasmaLyte R.T. 3 h) was “A (“A” means 70% or higher)”, the Viability (highly active NK cells [1]; Exmp. 7, pretreatment KBM + 266 μM TUDCA 2 h, thawing PlasmaLyte + IL-2, R.T. 1 h) was “A (“A” means 70% or higher)” and the Viability (highly active NK cells [1]; Exmp. 7, pretreatment KBM + 266 μM TUDCA 2 h, thawing PlasmaLyte + IL-2, R.T. 1 h, then KBM 2 h) was “A (“A” means 70% or higher)”. The Viability (highly active NK cells [1]; Exmp. 7, pretreatment KBM + 266 μM TUDCA 2 h, thawing PlasmaLyte + IL-2, R.T. 3 h) was “A (“A” means 70% or higher)”, the Viability (highly active NK cells [1]; Exmp. 7, pretreatment KBM + 266 μM TUDCA 2 h, thawing PlasmaLyte R.T. 1 h) was “A (“A” means 70% or higher)” and the Viability (highly active NK cells [1]; Exmp. 7, pretreatment KBM + 266 μM TUDCA 2 h, thawing PlasmaLyte R.T. 1 h, then KBM 2 h) was “A (“A” means 70% or higher)”. For the same molecule, the Viability (highly active NK cells [1]; Exmp. 7, pretreatment KBM + 266 μM TUDCA 2 h, thawing PlasmaLyte R.T. 3 h) was “A (“A” means 70% or higher)”, the Viability (highly active NK cells [1]; Exmp. 7, pretreatment KBM + 800 μM TUDCA 2 h, thawing PlasmaLyte + IL-2, R.T. 1 h) was “A (“A” means 70% or higher)” and the Viability (highly active NK cells [1]; Exmp. 7, pretreatment KBM + 800 μM TUDCA 2 h, thawing PlasmaLyte + IL-2, R.T. 1 h, then KBM 2 h) was “A (“A” means 70% or higher)”. The Viability (highly active NK cells [1]; Exmp. 7, pretreatment KBM + 800 μM TUDCA 2 h, thawing PlasmaLyte + IL-2, R.T. 3 h) was “A (“A” means 70% or higher)”, the Viability (highly active NK cells [1]; Exmp. 7, pretreatment KBM + 800 μM TUDCA 2 h, thawing PlasmaLyte R.T. 1 h) was “A (“A” means 70% or higher)” and the Viability (highly active NK cells [1]; Exmp. 7, pretreatment KBM + 800 μM TUDCA 2 h, thawing PlasmaLyte R.T. 1 h, then KBM 2 h) was “A (“A” means 70% or higher)”. For the same molecule, the Viability (highly active NK cells [1]; Exmp. 7, pretreatment KBM + 800 μM TUDCA 2 h, thawing PlasmaLyte R.T. 3 h) was “A (“A” means 70% or higher)”, the Viability (highly active NK cells [1]; Exmp. 7, pretreatment KBM + 2400 μM TUDCA 2 h, thawing PlasmaLyte + IL-2, R.T. 1 h) was “A (“A” means 70% or higher)” and the Viability (highly active NK cells [1]; Exmp. 7, pretreatment KBM + 2400 μM TUDCA 2 h, thawing PlasmaLyte + IL-2, R.T. 1 h, then KBM 2 h) was “A (“A” means 70% or higher)”. The Viability (highly active NK cells [1]; Exmp. 7, pretreatment KBM + 2400 μM TUDCA 2 h, thawing PlasmaLyte + IL-2, R.T. 3 h) was “A (“A” means 70% or higher)”, the Viability (highly active NK cells [1]; Exmp. 7, pretreatment KBM + 2400 μM TUDCA 2 h, thawing PlasmaLyte R.T. 1 h) was “A (“A” means 70% or higher)” and the Viability (highly active NK cells [1]; Exmp. 7, pretreatment KBM + 2400 μM TUDCA 2 h, thawing PlasmaLyte R.T. 1 h, then KBM 2 h) was “A (“A” means 70% or higher)”. For the same molecule, the Viability (highly active NK cells [1]; Exmp. 7, pretreatment KBM + 2400 μM TUDCA 2 h, thawing PlasmaLyte R.T. 3 h) was “A (“A” means 70% or higher)”, the Recovery rate (highly active NK cells [2]; added before freezing at 800 μM (preferable between 2,400 μM and 267 μM)) was “higher recovery rate” and the “Recovery rate after the thawing” value (highly active NK cells [2]; pretreatment 2 hours with KBM501 medium supplemented with 30 μM additive before freezing, Example 5) was “improved”. For the same molecule, the “Recovery rate after thawing” value (highly active NK cells [2]; pretreatment with KBM501 medium supplemented at various concentrations (266 to 2400 μM), Example 7) was “improved” and the “Recovery rate after the thawing” value (highly active NK cells [2]; pretreatment with KBM501 medium supplemented with various concentrations (10 to 810 μM), Example 6) was “improved”.
